Experimental findings from patent publication EP0249301A1, “Pyrido[2,3-b]indoles” (BEECHAM GROUP PLC, priority 1986, dated 1987) are described below.

This test has as its system Rats. The experiment in a line: Geller-Seifter procedure (conflict test for anxiolytic properties). The conditions noted are these: Rattus norvegicus, 0.5 h; dose 50 mg/kg po, 30 min before testing; percentage increase in square root of total lever presses in the FR5 'conflict' session; read-out: increase in responding in the 'conflict' session. Format: in vivo. As to the method: Potential anxiolytic properties have been evaluated using the Geller-Seifter procedure based on that originally described by Geller and Seifter, (1960) Psychopharmacologia, 1, 482-492.
Rats are trained on a variable interval 30 sec schedule (VI30) to press a lever in order to obtain food reward. The 5 min sessions of the V130 schedule alternate with 2-5 min of a schedule (FR5) in which every 5th lever press is followed by presentation of a food pellet paired with a 0.5 sec mild footshock. The total study lasts approximately 30 mins. Rats typically respond with high rates of lever pressing under the VI30 schedule and low response rats under the Fx5 'conflict' session. Anxiolytic drugs increase the suppressed response rates of rats in 'conflict' session.
Drugs are administered intraperitoneally or orally to groups of 3-8 rats 30 min before testing.
The results are expressed as the percentage increase in square root of the total number of lever presses in the FR5 'conflict' session. Square root transformation is necessary to normalise the data for statistical analysis using parametric methods.
Consider `COC(=O)c1c(C)nc2[nH]c3ccccc3c2c1N` [Example 1, 4-Amino-2-methyl-9H-pyrido[2,3-b]indole-3-carboxylic acid, methyl ester], for which the change in vivo at 50 mg/kg is 143%.
To `CNc1c(C(=O)OC)c(C)nc2c1c1ccccc1n2C` [Example 8, 2,9-Dimethyl-4-methylamino-9H-pyrido[2,3-b]indole-3-carboxylic acid, methyl ester] belongs 112%; to `C=CCOC(=O)c1c(C)nc2c(c1N)c1ccccc1n2C` [Example 11, 4-Amino-2,9-dimethyl-9H-pyrido[2,3-b]indole-3-carboxylic acid, 2-propenyl ester], 138%; to `C#CCOC(=O)c1c(C)nc2c(c1N)c1ccccc1n2C` [Example 14, 4-Amino-2,9-dimethyl-9H-pyrido[2,3-b]indole-3-carboxy-lie acid, 2-propynyl ester], 102%.
As to `CCCOC(=O)c1c(C)nc2c(c1N)c1ccccc1n2C` [Example 24, 4-Amino-2,9-dimethyl-9H-pyrido[2,3,b]indole-3-carboxylic acid, n-propyl ester], the change in vivo at 50 mg/kg was determined as 78%.
